Source: ChEMBL document CHEMBL1201861, “Genomics of Drug Sensitity in Cancer screening data, Wellcome Trust Sanger Institute”

What was measured:
Test in all cases: cells
[1] = test system: COLO-824; assay type: functional, cell-based, Homo sapiens; conditions: Homo sapiens, COLO-824
Description: SANGER: Inhibition of human COLO-824 cell growth in a cell viability assay.

[2] = test system: COR-L88; assay type: functional, cell-based, Homo sapiens; conditions: Homo sapiens, COR-L88;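 also: growth inhibition of COR-L88 cells, read out with a cell viability assay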
Description: SANGER: Inhibition of human COR-L88 cell growth in a cell viability assay.

[3] = test system: DJM-1; assay type: functional, cell-based, Homo sapiens; conditions: Homo sapiens, DJM-1;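 also: growth inhibition of human DJM-1 cells, read out by a cell viability assay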
Description: SANGER: Inhibition of human DJM-1 cell growth in a cell viability assay.

[4] = test system: DMS-114; assay type: functional, cell-based, Homo sapiens; conditions: Homo sapiens, DMS-114
[5] = test system: ES4; assay type: functional, cell-based, Homo sapiens; conditions: Homo sapiens, ES4;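 also: growth inhibition of human ES4 cells, read out by a cell viability assay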
Description: SANGER: Inhibition of human ES4 cell growth in a cell viability assay.

[6] = test system: GR-ST; assay type: functional, cell-based, Homo sapiens; conditions: Homo sapiens, GR-ST
Description: SANGER: Inhibition of human GR-ST cell growth in a cell viability assay.

[7] = test system: HAL-01; assay type: functional, cell-based, Homo sapiens; conditions: Homo sapiens, HAL-01;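 also: growth inhibition of human HAL-01 cells, read out with a cell viability assay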
Description: SANGER: Inhibition of human HAL-01 cell growth in a cell viability assay.

[8] = test system: HC-1; assay type: functional, cell-based, Homo sapiens; conditions: Homo sapiens, HC-1;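 also: growth inhibition of HC-1 cells measured by a cell viability assay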
Description: SANGER: Inhibition of human HC-1 cell growth in a cell viability assay.

[9] = test system: HCC1187; assay type: functional, cell-based, Homo sapiens; conditions: Homo sapiens, HCC1187;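 also: growth inhibition of HCC1187 cells, read out with a cell viability assay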
Description: SANGER: Inhibition of human HCC1187 cell growth in a cell viability assay.

[10] = test system: HCC2157; assay type: functional, cell-based, Homo sapiens; conditions: Homo sapiens, HCC2157;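 also: growth inhibition of the cancer cell line, read out as cell viability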
Description: SANGER: Inhibition of human HCC2157 cell growth in a cell viability assay.

[11] = test system: HCC2218; assay type: functional, cell-based, Homo sapiens; conditions: Homo sapiens, HCC2218;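 also: cell viability assay read-out, with IC50 given as the concentration that inhibits growth of the cell line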
Description: SANGER: Inhibition of human HCC2218 cell growth in a cell viability assay.

[12] = test system: HT; assay type: functional, cell-based, Homo sapiens; conditions: Homo sapiens, HT
Description: SANGER: Inhibition of human HT cell growth in a cell viability assay.

[13] = test system: J-RT3-T3-5; assay type: functional, cell-based, Homo sapiens; conditions: Homo sapiens, J-RT3-T3-5;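 also: cell viability assay measuring growth inhibition of human J-RT3-T3-5 cells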
Description: SANGER: Inhibition of human J-RT3-T3-5 cell growth in a cell viability assay.

[14] = test system: KLE; assay type: functional, cell-based, Homo sapiens; conditions: Homo sapiens, KLE;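 also: growth inhibition of human KLE cells, read out with a cell viability assay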
Description: SANGER: Inhibition of human KLE cell growth in a cell viability assay.

[15] = test system: KM-H2; assay type: functional, cell-based, Homo sapiens; conditions: Homo sapiens, KM-H2;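 also: growth inhibition of KM-H2 cells, read out by a cell viability assay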
Description: SANGER: Inhibition of human KM-H2 cell growth in a cell viability assay.

[16] = test system: L-428; assay type: functional, cell-based, Homo sapiens; conditions: Homo sapiens, L-428
Description: SANGER: Inhibition of human L-428 cell growth in a cell viability assay.

[17] = test system: LB831-BLC; assay type: functional, cell-based, Homo sapiens; conditions: Homo sapiens, LB831-BLC;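 also: growth inhibition of LB831-BLC cells, read out with a cell viability assay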
Description: SANGER: Inhibition of human LB831-BLC cell growth in a cell viability assay.

[18] = test system: LOX IMVI; assay type: functional, cell-based, Homo sapiens; conditions: Homo sapiens, LOX IMVI
Description: SANGER: Inhibition of human LOXIMVI cell growth in a cell viability assay.

[19] = test system: LS-411N; assay type: functional, cell-based, Homo sapiens; conditions: Homo sapiens, LS-411N
[20] = test system: MFH-ino; assay type: functional, cell-based, Homo sapiens; conditions: Homo sapiens, MFH-ino;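 also: growth inhibition of human MFH-ino cells, read out by a cell viability assay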
Description: SANGER: Inhibition of human MFH-ino cell growth in a cell viability assay.

[21] = test system: MFM-223; assay type: functional, cell-based, Homo sapiens; conditions: Homo sapiens, MFM-223
Description: SANGER: Inhibition of human MFM-223 cell growth in a cell viability assay.

[22] = test system: MZ2-MEL; assay type: functional, cell-based, Homo sapiens; conditions: Homo sapiens, MZ2-MEL;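 also: growth inhibition of MZ2-MEL cells read out with a cell viability assay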
Description: SANGER: Inhibition of human MZ2-MEL cell growth in a cell viability assay.

[23] = test system: Mo; assay type: functional, cell-based, Homo sapiens; conditions: Homo sapiens, Mo
Description: SANGER: Inhibition of human Mo-T cell growth in a cell viability assay.

[24] = test system: NCI-H1770; assay type: functional, cell-based, Homo sapiens; conditions: Homo sapiens, NCI-H1770;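 also: growth inhibition of NCI-H1770 cells determined with a viability readout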
Description: SANGER: Inhibition of human NCI-H1770 cell growth in a cell viability assay.

[25] = test system: NCI-H1838; assay type: functional, cell-based, Homo sapiens; conditions: Homo sapiens, NCI-H1838;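 also: growth inhibition of NCI-H1838 cells, determined with a cell viability readout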
Description: SANGER: Inhibition of human NCI-H1838 cell growth in a cell viability assay.

[26] = test system: NCI-H2126; assay type: functional, cell-based, Homo sapiens; conditions: Homo sapiens, NCI-H2126;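 also: growth inhibition of the cancer cell line, determined with a cell viability readout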
Description: SANGER: Inhibition of human NCI-H2126 cell growth in a cell viability assay.

[27] = test system: SNU1; assay type: functional, cell-based, Homo sapiens; conditions: Homo sapiens, SNU1;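 also: growth inhibition of human NCI-SNU-1 cells, measured with a cell viability assay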
Description: SANGER: Inhibition of human NCI-SNU-1 cell growth in a cell viability assay.

[28] = test system: ONS-76; assay type: functional, cell-based, Homo sapiens; conditions: Homo sapiens, ONS-76;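 also: growth inhibition of human ONS-76 cells, read out with a cell viability assay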
Description: SANGER: Inhibition of human ONS-76 cell growth in a cell viability assay.

[29] = test system: RPMI-8226; assay type: functional, cell-based, Homo sapiens; conditions: Homo sapiens, RPMI-8226
Description: SANGER: Inhibition of human RPMI-8226 cell growth in a cell viability assay.

[30] = test system: SBC-1; assay type: functional, cell-based, Homo sapiens; conditions: Homo sapiens, SBC-1;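 also: cell viability assay measuring growth inhibition of the SBC-1 cell line, IC50 being the concentration that halves growth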
Description: SANGER: Inhibition of human SBC-1 cell growth in a cell viability assay.

[31] = test system: SCH; assay type: functional, cell-based, Homo sapiens; conditions: Homo sapiens, SCH;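 also: growth inhibition of human SCH cells, read out in a cell viability assay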
Description: SANGER: Inhibition of human SCH cell growth in a cell viability assay.

[32] = test system: SH-4; assay type: functional, cell-based, Homo sapiens; conditions: Homo sapiens, SH-4;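 also: growth inhibition of SH-4 cells, read out with a cell viability assay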
Description: SANGER: Inhibition of human SH-4 cell growth in a cell viability assay.

[33] = test system: SHP77; assay type: functional, cell-based, Homo sapiens, SHP-77; conditions: Homo sapiens, SHP77;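 also: growth inhibition of human SHP-77 cells measured by a cell viability assay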
Description: SANGER: Inhibition of human SHP-77 cell growth in a cell viability assay.

[34] = test system: SJSA-1; assay type: functional, cell-based, Homo sapiens; conditions: Homo sapiens, SJSA-1;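 also: growth inhibition of human SJSA-1 cells, read out through a cell viability measurement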
Description: SANGER: Inhibition of human SJSA-1 cell growth in a cell viability assay.

[35] = test system: SK-MEL-2; assay type: functional, cell-based, Homo sapiens; conditions: Homo sapiens, SK-MEL-2;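 also: growth inhibition of human SK-MEL-2 cells measured with a cell viability assay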
Description: SANGER: Inhibition of human SK-MEL-2 cell growth in a cell viability assay.

[36] = test system: SK-UT-1; assay type: functional, cell-based, Homo sapiens; conditions: Homo sapiens, SK-UT-1;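 also: growth inhibition of SK-UT-1 cells, measured by a cell viability assay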
Description: SANGER: Inhibition of human SK-UT-1 cell growth in a cell viability assay.

[37] = test system: SW 962; assay type: functional, cell-based, Homo sapiens; conditions: Homo sapiens, SW 962;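 also: growth inhibition of human SW962 cells, read out by a cell viability assay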
Description: SANGER: Inhibition of human SW962 cell growth in a cell viability assay.

[38] = test system: A101D; assay type: functional, cell-based, Homo sapiens; conditions: Homo sapiens, A101D;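 also: growth inhibition of the cell line, measured with a viability assay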
Description: SANGER: Inhibition of human A101D cell growth in a cell viability assay.

[39] = test system: A3-KAW; assay type: functional, cell-based, Homo sapiens; conditions: Homo sapiens, A3-KAW;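 also: growth inhibition of human A3-KAW cells, read out with a cell viability assay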
Description: SANGER: Inhibition of human A3-KAW cell growth in a cell viability assay.

[40] = test system: A4-Fuk; assay type: functional, cell-based, Homo sapiens; conditions: Homo sapiens, A4-Fuk;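 also: growth inhibition of A4-Fuk cells, read out by a cell viability assay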
Description: SANGER: Inhibition of human A4-Fuk cell growth in a cell viability assay.

[41] = test system: ACN; assay type: functional, cell-based, Homo sapiens; conditions: Homo sapiens, ACN;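 also: growth inhibition of the human ACN cell line, read out via cell viability testing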
Description: SANGER: Inhibition of human ACN cell growth in a cell viability assay.

[42] = test system: AM-38; assay type: functional, cell-based, Homo sapiens; conditions: Homo sapiens, AM-38;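 also: growth inhibition of AM-38 cells of human origin, read out by a cell viability assay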
Description: SANGER: Inhibition of human AM-38 cell growth in a cell viability assay.

[43] = test system: BB49-HNC; assay type: functional, cell-based, Homo sapiens; conditions: Homo sapiens, BB49-HNC;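 also: cell viability assay read-out, reported as inhibition of BB49-HNC cell growth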
Description: SANGER: Inhibition of human BB49-HNC cell growth in a cell viability assay.

[44] = test system: TE-9; assay type: functional, cell-based, Homo sapiens; conditions: Homo sapiens, TE-9;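 also: cell growth inhibition, measured with a cell viability readout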
Description: SANGER: Inhibition of human TE-9 cell growth in a cell viability assay.

[45] = test system: UACC-257; assay type: functional, cell-based, Homo sapiens; conditions: Homo sapiens, UACC-257
Description: SANGER: Inhibition of human UACC-257 cell growth in a cell viability assay.

Cc1ccc(-c2c(C(=O)CCl)n(CCCO)c3ncnc(N)c23)cc1 was tested, and the IC50 [1] was > 4000 nM, the IC50 [2] was > 4000 nM and the IC50 [3] was > 4000 nM. The IC50 [4] was > 4000 nM, the IC50 [5] was > 4000 nM and the IC50 [6] was > 4000 nM. The IC50 [7] was > 4000 nM, the IC50 [8] was > 4000 nM and the IC50 [9] was > 4000 nM. For the same compound, the IC50 [10] was > 4000 nM, the IC50 [11] was > 4000 nM and the IC50 [12] was > 4000 nM. For the same compound, the IC50 [13] was > 4000 nM, the IC50 [14] was > 4000 nM and the IC50 [15] was > 4000 nM. For the same compound, the IC50 [16] was > 4000 nM, the IC50 [17] was > 4000 nM and the IC50 [18] was > 4000 nM. For the same compound, the IC50 [19] was > 4000 nM, the IC50 [20] was > 4000 nM and the IC50 [21] was > 4000 nM. The IC50 [22] was > 4000 nM, the IC50 [23] was > 4000 nM and the IC50 [24] was > 4000 nM. The IC50 [25] was > 4000 nM, the IC50 [26] was > 4000 nM and the IC50 [27] was > 4000 nM. For the same compound, the IC50 [28] was > 4000 nM, the IC50 [29] was > 4000 nM and the IC50 [30] was > 4000 nM. The IC50 [31] was > 4000 nM, the IC50 [32] was > 4000 nM and the IC50 [33] was > 4000 nM. The IC50 [34] was > 4000 nM, the IC50 [35] was > 4000 nM and the IC50 [36] was > 4000 nM. For the same compound, the IC50 [37] was 3660 nM, the IC50 [38] was 3830 nM and the IC50 [39] was > 4000 nM. The IC50 [40] was > 4000 nM, the IC50 [41] was > 4000 nM and the IC50 [42] was > 4000 nM. For the same compound, the IC50 [43] was > 4000 nM, the IC50 [44] was > 4000 nM and the IC50 [45] was > 4000 nM.

With COc1cc2ncn(-c3cc(OCc4ccccc4C(F)(F)F)c(C(N)=O)s3)c2cc1OC [GW843682X] the IC50 [1] was > 256 nM, the IC50 [2] was 78.4 nM and the IC50 [3] was 60.6 nM. For the same compound, the IC50 [4] was 122 nM, the IC50 [5] was 18.4 nM and the IC50 [6] was 84 nM. For the same compound, the IC50 [7] was 80.8 nM, the IC50 [8] was 26.2 nM and the IC50 [9] was 122 nM. For the same compound, the IC50 [10] was > 256 nM, the IC50 [11] was > 256 nM and the IC50 [12] was 128 nM. It also gave an IC50 [13] of 21.2 nM, an IC50 [14] of 213 nM and an IC50 [15] of 20.5 nM. For the same compound, the IC50 [16] was 110 nM, the IC50 [17] was 200 nM and the IC50 [18] was 125 nM. The IC50 [19] was 8 nM, the IC50 [20] was 35.5 nM and the IC50 [21] was > 256 nM. The IC50 [22] was 126 nM, the IC50 [23] was > 256 nM and the IC50 [24] was > 256 nM. The IC50 [25] was > 256 nM, the IC50 [26] was 67.9 nM and the IC50 [27] was > 256 nM. The IC50 [28] was 77.8 nM, the IC50 [29] was 28.1 nM and the IC50 [30] was > 256 nM. For the same compound, the IC50 [31] was > 256 nM, the IC50 [32] was 123 nM and the IC50 [33] was 57.3 nM. For the same compound, the IC50 [34] was 32.7 nM, the IC50 [35] was > 256 nM and the IC50 [36] was 23.7 nM. The IC50 [37] was 42.2 nM, the IC50 [38] was 11.3 nM and the IC50 [39] was 51.7 nM. For the same compound, the IC50 [40] was 20.8 nM, the IC50 [41] was 33.3 nM and the IC50 [42] was > 256 nM. The IC50 [43] was > 256 nM, the IC50 [44] was 21.3 nM and the IC50 [45] was 130 nM.

For CC(=O)O[C@H]1C(=O)[C@@]2(C)[C@H]([C@H](OC(=O)c3ccccc3)[C@]3(O)C[C@H](OC(=O)[C@H](O)[C@@H](NC(=O)c4ccccc4)c4ccccc4)C(C)=C1C3(C)C)[C@]1(OC(C)=O)CO[C@@H]1C[C@@H]2O [PACLITAXEL], the IC50 [1] was > 102 nM, the IC50 [2] was 59.3 nM and the IC50 [3] was 5.3 nM. For the same compound, the IC50 [4] was 25 nM, the IC50 [5] was 4.49 nM and the IC50 [6] was 56.2 nM. The IC50 [7] was > 102 nM, the IC50 [8] was 7.21 nM and the IC50 [9] was 19.2 nM. The IC50 [10] was > 102 nM, the IC50 [11] was > 102 nM and the IC50 [12] was 80.9 nM. For the same compound, the IC50 [13] was 23.8 nM, the IC50 [14] was > 102 nM and the IC50 [15] was 33.1 nM. The IC50 [16] was > 102 nM, the IC50 [17] was 24.8 nM and the IC50 [18] was 70.3 nM. For the same compound, the IC50 [19] was 7.17 nM, the IC50 [20] was 2.68 nM and the IC50 [21] was > 102 nM. For the same compound, the IC50 [22] was 47.4 nM, the IC50 [23] was > 102 nM and the IC50 [24] was > 102 nM. The IC50 [25] was > 102 nM, the IC50 [26] was 27.7 nM and the IC50 [27] was > 102 nM. It also gave an IC50 [28] of 20.4 nM, an IC50 [29] of 11 nM and an IC50 [30] of 50.4 nM. The IC50 [31] was > 102 nM, the IC50 [32] was 18.9 nM and the IC50 [33] was > 102 nM. The IC50 [34] was 17.7 nM, the IC50 [35] was > 102 nM and the IC50 [36] was 4.8 nM. It also gave an IC50 [37] of 6.62 nM, an IC50 [38] of 9.6 nM and an IC50 [39] of 73.5 nM. The IC50 [40] was 6.11 nM, the IC50 [41] was 3.16 nM and the IC50 [42] was > 102 nM. The IC50 [43] was > 102 nM, the IC50 [44] was 3.26 nM and the IC50 [45] was 48.5 nM.
